From BindingDB's records for doi:10.1111/cbdd.12126 (Shaoyang University, 2013)

Molecular target: T1, Polyphenol oxidase 2 (Agaricus bisporus, UniProt O42713)
T1 sequence (O42713 whole entry): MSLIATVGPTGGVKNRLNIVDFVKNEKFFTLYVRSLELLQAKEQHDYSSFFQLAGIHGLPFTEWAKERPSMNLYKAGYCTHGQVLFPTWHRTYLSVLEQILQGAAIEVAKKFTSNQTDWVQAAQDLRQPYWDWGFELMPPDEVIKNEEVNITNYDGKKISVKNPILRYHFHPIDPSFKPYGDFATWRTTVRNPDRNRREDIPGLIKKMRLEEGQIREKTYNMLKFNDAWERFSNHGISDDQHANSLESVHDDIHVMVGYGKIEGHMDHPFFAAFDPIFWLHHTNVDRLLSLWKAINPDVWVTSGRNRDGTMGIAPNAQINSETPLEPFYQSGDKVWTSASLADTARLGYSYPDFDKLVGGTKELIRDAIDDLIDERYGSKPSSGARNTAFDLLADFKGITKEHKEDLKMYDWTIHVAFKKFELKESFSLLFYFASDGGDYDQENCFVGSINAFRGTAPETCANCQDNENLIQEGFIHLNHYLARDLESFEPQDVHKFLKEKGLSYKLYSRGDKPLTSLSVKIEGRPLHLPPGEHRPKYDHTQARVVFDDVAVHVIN
Assay: Spectrophotometric Assay
Conditions: pH 6.8; 25 °C
Procedure: All compounds were dissolved in DMSO (final DMSO concentration in test solution was 2.0%). Phosphate buffer, pH 6.8, was use to dilute the DMSO stock solution of test compounds. Thirty units of mushroom tyrosinase (0.5 mg/mL) were first pre-incubated with the compounds, in 50 mM phosphate buffer (pH 6.8), for 10 min at 25°C, followed by addition of L-DOPA (0.5 mM). The enzyme reaction was monitored by measuring the change in absorbance at 475 nm of formation of the DOPA chrome for 1 min. The measurement was performed in triplicate for each concentration and averaged before further calculation.

| IC50 | SMILES |
| --- | --- |
| 110 µM | O=C(/C=C/c1ccccc1)c1ccc(O)cc1O [1-(2,4-dihydroxyphenyl)-3-phenylprop-2-en-1-one (4)] |
| 117 µM | O=C(/C=C/c1ccccc1)c1cccc(Cl)c1 [1-(3-chlorophenyl)-3-phenylprop-2-en-1-one (11)] |
| 142 µM | COc1ccc(C(=O)/C=C/c2ccccc2)cc1 [1-(4-methoxyphenyl)-3-phenylprop-2-en-1-one (6)] |
